How the values were obtained:
IP receptor = target: T1, IP receptor (Homo sapiens, UniProt P43119); assay: IP receptor binding/cAMP in HEL cells ([3H]-iloprost binding, Assay 1; iloprost-induced cAMP production, Assay 2); conditions: compounds of about 40 to 90% purity, read-out: In vitro activity grade (IC50 class)
T1 construct: one million cells in 160 μl aliquot of cell suspension were put in a well of 96 well plate; host or cells: HEL 92.1.7 human erythroleukemia cells (whole cells)
How it was run: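 For binding (Assay 1), 1×10^6 HEL 92.1.7 cells in 50 mM Tris-HCl, 5 mM MgCl2, pH 7.5 were incubated with [3H]-iloprost (0.02 μCi) for 30 min at RT and filter-counted; a 100 μM iloprost solution defined non-specific binding. Compounds were of 40-90% purity.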

T1 sequence (P43119 whole entry): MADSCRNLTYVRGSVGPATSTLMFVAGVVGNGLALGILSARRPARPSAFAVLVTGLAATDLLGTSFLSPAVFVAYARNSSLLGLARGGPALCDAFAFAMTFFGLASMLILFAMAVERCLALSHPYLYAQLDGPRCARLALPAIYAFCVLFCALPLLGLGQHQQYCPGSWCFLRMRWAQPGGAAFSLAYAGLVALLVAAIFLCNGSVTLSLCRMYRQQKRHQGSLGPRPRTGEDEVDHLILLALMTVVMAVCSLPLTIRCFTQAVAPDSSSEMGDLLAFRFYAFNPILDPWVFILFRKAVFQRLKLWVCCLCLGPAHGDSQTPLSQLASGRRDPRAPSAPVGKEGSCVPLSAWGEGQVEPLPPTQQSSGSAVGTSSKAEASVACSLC

SMILES	melting point	IC50 (IP receptor) [nM]
O=C(O)C(Cc1ccccc1)Nc1cc(-c2ccc(-c3cccc4ccccc34)cc2)ncn1 (stereo not shown) [Example 11-7]	135 to 138 °C (dec.)	100 to 1000
O=C(O)C(Cc1ccccc1)Nc1cc(-c2ccc(-c3cccc([N+](=O)[O-])c3)cc2)ncn1 (stereo not shown) [Example 11-9]	125 to 127 °C (dec.)	< 100
COc1ccccc1-c1ccc(-c2cc(NC(Cc3ccccc3)C(=O)O)ncn2)cc1 (stereo not shown) [Example 11-10]	121 to 123 °C (dec.)	100 to 1000
O=C(O)C(Cc1ccccc1)Nc1cc(-c2ccc(-c3ccc(Oc4ccccc4)cc3)cc2)ncn1 (stereo not shown) [Example 11-11]	120 to 123 °C (dec.)	100 to 1000
COc1cc(-c2ccc(-c3cc(NC(Cc4ccccc4)C(=O)O)ncn3)cc2)cc(OC)c1OC (stereo not shown) [Example 11-12]	120 to 123 °C	100 to 1000
O=C(Nc1ccc(-c2cc(N[C@@H](Cc3ccccc3)C(=O)O)ncn2)cc1)c1ccccc1 [Example 14-1, N-{6-[4-(Benzoylamino)phenyl]pyrimidin-4-yl}phenylalanine]	250 to 252 °C (dec.)	100 to 1000
CC(C)(C)OC(=O)Nc1ccc(-c2cc(NC(Cc3ccccc3)C(=O)O)ncn2)cc1 (stereo not shown) [Example 14-2]	153 to 155 °C (dec.)	100 to 1000
O=C(Cc1ccccc1)Nc1ccc(-c2cc(NC(Cc3ccccc3)C(=O)O)ncn2)cc1 (stereo not shown) [Example 14-3]	145 to 148 °C (dec.)	100 to 1000
O=C(O)C(Cc1ccccc1)Nc1cc(-c2ccc(NS(=O)(=O)c3ccc(F)cc3)cc2)ncn1 (stereo not shown) [Example 15-2]	217 to 220 °C (dec.)	> 1000
O=C(c1ccccc1)c1ccc(-c2cc(N[C@@H](Cc3ccccc3)C(=O)O)ncn2)cc1 [Example 17-1, N-[6-(4-Benzoylphenyl)pyrimidin-4-yl]phenylalanine]	109 to 111 °C	< 100
O=C(c1ccc(-c2cc(NC(Cc3ccccc3)C(=O)O)ncn2)cc1)C1CCCCC1 (stereo not shown) [Example 17-2]	116 to 119 °C	100 to 1000
O=C(c1ccc(-c2cc(NC(Cc3ccccc3)C(=O)O)ncn2)cc1)C1CCCC1 (stereo not shown) [Example 17-3]	114 to 116 °C	< 100
O=C(c1ccc(F)cc1)c1ccc(-c2cc(NC(Cc3ccccc3)C(=O)O)ncn2)cc1 (stereo not shown) [Example 17-4]	115 to 117 °C	< 100
O=C(c1ccc(Cl)cc1)c1ccc(-c2cc(NC(Cc3ccccc3)C(=O)O)ncn2)cc1 (stereo not shown) [Example 17-5]	123 to 126 °C	< 100
O=C(O)C(Cc1ccccc1)Nc1cc(-c2ccc(Cc3ccc(F)cc3)cc2)ncn1 (stereo not shown) [Example 18-2]	98 to 101 °C	100 to 1000
O=C(O)C(Cc1ccccc1)Nc1cc(-c2ccc(Cc3ccc(Cl)cc3)cc2)ncn1 (stereo not shown) [Example 18-3]	105 to 107 °C	100 to 1000
O=C(O)C(Cc1ccccc1)Nc1cc(-c2ccc(CNCc3ccccc3)cc2)ncn1 (stereo not shown) [Example 19-2]	173 to 176 °C (dec.)	100 to 1000
O=C(O)C(Cc1ccccc1)Nc1cc(-c2ccc(CN3CCc4ccccc4C3)cc2)ncn1 (stereo not shown) [Example 19-4]	148 to 150 °C	> 1000

SMILES	melting point	IC50 (IP receptor) [nM]
O=C(O)C(Cc1ccccn1)Nc1cc(-c2ccc(COc3ccccc3)cc2)ncn1 (stereo not shown) [Example 20-2]	81 to 84 °C	< 100
O=C(O)[C@H](Cc1ccccc1)Nc1cc(-c2ccc(/C=N/Oc3ccccc3)cc2)ncn1 [Example 21-1, N-(6-{4-[(E)-(phenoxyimino)methyl]phenyl}pyrimidin-4-yl)phenylalanine]	152.8 °C	< 100
O=Cc1c(N[C@@H](Cc2ccccc2)C(=O)O)ncnc1-c1ccc(OCc2ccccc2)cc1 [Example 22-1, N-{6-[4-(Benzyloxy)phenyl)-5-formylpyrimidin-4-yl}phenylalanine]	> 300 °C	100 to 1000
O=C(O)[C@H](Cc1ccccc1)Nc1ncnc(-c2ccc(OCc3ccccc3)cc2)c1CO [Example 23-1, N-[6-[4-(Benzyloxy)phenyl]-5-(hydroxymethyl)pyrimidin-4-yl]phenylalanine]	114 to 117 °C	100 to 1000
O=C(O)[C@H](Cc1ccccc1)Nc1cccc(-c2ccc(OCc3ccccc3)cc2)c1 [Example 24-1, N-[4′-(Benzyloxy)biphenyl-3-yl]phenylalanine]	152 to 154 °C	< 100
COc1cccc(COc2ccc(-c3cccc(N[C@@H](Cc4ccccc4)C(=O)O)c3)cc2)c1 [Example 24-2, N-{4′-[(3-Methoxybenzyl)oxy]biphenyl-3-yl}phenylalanine]	159 to 162 °C	< 100
COc1cc(COc2ccc(-c3cccc(NC(Cc4ccccc4)C(=O)O)c3)cc2)cc(OC)c1 (stereo not shown) [Example 24-3]	166 to 168 °C	< 100
O=C(O)C(Cc1ccccc1)Nc1cccc(-c2ccc(OCc3ccccc3F)cc2)c1 (stereo not shown) [Example 24-4]	158 to 161 °C	< 100
O=C(O)C(Cc1ccccc1)Nc1cccc(-c2ccc(OCc3cccc(F)c3)cc2)c1 (stereo not shown) [Example 24-5]	167 to 169 °C	< 100
O=C(O)C(Cc1ccccc1)Nc1cccc(-c2ccc(OCc3ccc(F)cc3)cc2)c1 (stereo not shown) [Example 24-6]	175 to 178 °C	100 to 1000
O=C(O)C(Cc1ccccc1)Nc1cccc(-c2ccc(OCCn3cccc3)cc2)c1 (stereo not shown) [Example 24-7]	182 to 185 °C	< 100
O=C(O)[C@H](Cc1ccccc1)Nc1cc(-c2ccc(OCc3ccccc3)nc2)ncn1 [Example 25-1, N-{6-[6-(benzyloxy)pyridin-3-yl]pyrimidin-4-yl}phenylalanine]	130 to 133 °C	< 100
O=C(O)C(Cc1ccccc1)Nc1cccc(-c2ccc(OCc3ccccc3)nc2)c1 (stereo not shown) [Example 25-2]	150 to 153 °C	100 to 1000
O=C(O)C(Cc1ccccc1)Nc1cc(-c2ccc(OCC3CC3)nc2)ncn1 (stereo not shown) [Example 25-3]	113 to 114 °C	< 100
O=C(NO)C(Cc1ccccc1)Nc1cc(-c2ccc(OCc3ccccc3)cc2)ncn1 (stereo not shown) [Example 26-1, N-{6-[4-(Benzyloxy)phenyl]pyrimidin-4-yl}-N-hydroxyphenylalaninamide]	235 to 239 °C	< 100
c1ccc(COc2ccc(-c3cc(NC(Cc4ccccc4)c4nnn[nH]4)ncn3)cc2)cc1 (stereo not shown) [Example 27-1, 6-[4-(Benzyloxy)phenyl]-N-[2-phenyl-1-(1H-tetrazol-5-yl)ethyl)pyrimidin-4-amine]	150 °C	< 100
O=C(O)[C@H](Cc1ccccc1)Nc1ccnc(-c2ccc(OCc3ccccc3)cc2)c1 [Example 28-1, N-{2-[4-(Benzyloxy)phenyl]pyridin-4-yl}phenylalanine]	137 to 139 °C	< 100
